Results from patent publication US20240043384A1, “INHIBITORS OF PU.1 FOR THE TREATMENT OF DISEASE” (Board of Regents, The University of Texas System, priority 2021, published 2024).

test system: THP-1 CD14; experiment: THP-1 CD14 Screening Assay; format: cell-based; conditions: Homo sapiens, THP-1, 72 h, THP-1 cells treated with PMA and compound (5-point 10-fold dilution), human CD14 ELISA on media
Procedure: THP-1 CD14 Screening Assay Protocol:
5×10^4 THP-1 cells were plated per well in a tissue culture-treated 96-well plate. At the time of plating, cells were treated with a final concentration of […] PMA and 0.04% DMSO vehicle, concominant with compounds in a 5-point 10-fold dilution per compound. Cells were treated with PMA and DMSO as a control for differentiation without compound treatment, and with only DMSO as a control for no differentiation and no compound treatment. 500 nM IACS-71432 was added as a control compound across all assay plates.
After incubation at 37° C./5% CO2 for 72 hr, media was collected from the cells and the screening assay was performed using the commercially-available human CD14 SimpleStep ELISA kit from Abcam, according to the following protocol: • 1) ELISA kits were taken out to equilibrate to rt. • 2) Following the protocol listed in the kit, standards were prepared as 1:1 dilutions from 2 ng/ml. • 3) Following the protocol listed in the kit, antibody cocktail was prepared (the volume is contingent on the number of wells required). • 4) 50 μl of standards were added to the appropriate wells, thoroughly mizing the standards before adding to each well. • 5) 25 μl of Sample Diluent (from kit) was added to all sample wells. • 6) Cell plates were centrifuged for 5 min at 300 rcf, with slow acceleration and slow deceleration. • 7) 25 μl of media from cell plates was transferred to assay plates containing standards. • 8) 50 μl of antibody cocktail was added to all of the wells, standards and samples. • 9) Assay plates were sealed tightly and incubated on the plate shaker at 400 rpm for 1 hr at rt. • 10) Wash buffer was prepared following the protocol listed in the kit. • 11) After the hour incubation, assay plates were washed 5 times using 200 μl wash buffer per well per wash. • 12) 100 μl of TMB substrate was added to each well in the dark and incubated on the shaker for 3-4.min, at which point color development was monitored to ensure a robust signal for detection but to avoid oversaturation of signal, for no longer than 10 min. • 13) The absorbance at 607 nm was read on a Perkin Elmer Envision plate reader. • 14) Data was processed using Microsoft Excel and GraphPad Prism.

SMILES	IC50 [nM]
O=S(=O)(NCc1ccncc1)c1ccc(-c2cccnc2)cc1 [Example 4, 4-(pyridin-3-yl)-N-(pyridin-4-ylmethyl)benzenesulfonamide]	100 to 500
O=C1NCc2ccc(-c3ccc(S(=O)(=O)NCc4ccncc4)cc3)cc21 [Example 57, 4-(3-oxoisoindolin-5-yl)-N-(pyridin-4-ylmethyl)-benzenesulfonamide]	5 to 100
CC(=O)Nc1cc(CNS(=O)(=O)c2ccc(C3CCCCC3)cc2)ccn1 [Example 10, N-(4-(((4-cyclohexylphenyl)sulfonamido)methyl)pyridin-2-yl)acetamide]	5 to 100
O=S(=O)(NCc1ccncc1)c1ccc(N2CC3(C2)CC(F)(F)C3)cc1 [Example 34, 4-(6,6-difluoro-2-azaspiro[3.3]heptan-2-yl)-N-(pyridin-4-ylmethyl)-benzenesulfonamide]	5 to 100
O=S(=O)(NCc1ccncc1)c1ccc(N2CCC(F)(F)C2)cc1 [Example 29, 4-(3,3-difluoropyrrolidin-1-yl)-N-(pyridin-4-ylmethyl)-benzenesulfonamide]	5 to 100
O=S(=O)(NCc1ccncc1)c1ccc(N2CCOCC2)cc1 [Example 24, 4-morpholino-N-(pyridin-4-ylmethyl)benzenesulfonamide]	100 to 500
O=S(=O)(NCc1ccncc1)c1ccc(C2=CCCC2)cc1 [Example 1, 4-(Cyclopent-1-en-1-yl)-N-(pyridin-4-ylmethyl)benzenesulfonamide]	5 to 100
O=S(=O)(NCc1ccncc1)c1ccc(N2CCCC(F)C2)cc1 (stereo not shown) [Example 30, 4-(3-fluoropiperidin-1-yl)-N-(pyridin-4-ylmethyl)-benzenesulfonamide]	5 to 100
O=S(=O)(NCc1ccncc1)c1ccc(N2CCCC(F)(F)C2)cc1 [Example 27, 4-(3,3-difluoropiperidin-1-yl)-N-(pyridin-4-ylmethyl)-benzenesulfonamide]	5 to 100
O=S(=O)(NCc1ccncc1)c1ccc(-c2ccc3cc[nH]c3c2)cc1 [Example 58, 4-(1H-indol-6-yl)-N-(pyridin-4-ylmethyl)-benzenesulfonamide]	< 5
O=S(=O)(NCc1ccncc1)c1ccc(C2CCC(F)(F)CC2)cc1 [Example 15, 4-(4,4-difluorocyclohexyl)-N-(pyridin-4-ylmethyl)-benzenesulfonamide]	< 5

Next, values leading:

IC50 [nM]	SMILES
< 5	O=S(=O)(NCc1ccncc1)c1ccc(OCC2CCCO2)cc1 (stereo not shown) [Example 11, N-(pyridin-4-ylmethyl)-4-((tetrahydrofuran-2-yl)methoxy)benzenesulfonamide]
< 5	O=S(=O)(NCc1ccncc1)c1ccc(-c2ccccc2)cc1 [Example 37, N-(pyridin-4-ylmethyl)-[1,1′-biphenyl]-4-sulfonamide]
< 5	Cn1ncc2c(NS(=O)(=O)c3ccc(C4CCCCC4)cc3)cccc21 [Example 63, 4-cyclohexyl-N-(1-methyl-1H-indazol-4-yl)benzenesulfonamide]
< 5	O=S(=O)(Nc1cccc2cnccc12)c1ccc(C2CCOCC2)cc1 [Example 7, N-(Isoquinolin-5-yl)-4-(tetrahydro-2H-pyran-4-yl)enzenesulfonamide]
< 5	O=S(=O)(NCc1ccncc1)c1ccc(-c2ccc3ncsc3c2)cc1 [Example 46, 4-(benzo[d]thiazol-6-yl)-N-(pyridin-4-ylmethyl)-benzenesulfonamide]
< 5	Cc1n[nH]c2cc(-c3ccc(S(=O)(=O)NCc4ccncc4)cc3)ccc12 [Example 59, 4-(3-methyl-1H-indazol-6-yl)-N-(pyridin-4-ylmethyl)-benzenesulfonamide]
< 5	Cc1ccc(-c2ccc(S(=O)(=O)NCc3ccncc3)cc2)nc1 [Example 42, 4-(5-methylpyridin-2-yl)-N-(pyridin-4-ylmethyl)-benzenesulfonamide]

same assay, conditions: THP-1 cells treated with PMA and compound (5-point 10-fold dilution), 72 hr; human CD14 ELISA on media

IC50 [nM]	SMILES
100 to 500	Cc1nc2cc(-c3ccc(S(=O)(=O)NCc4ccncc4)cc3)ccc2s1 [49 (b), 4-(2-methyl-benzo[d]thiazol-5-yl)-N-(pyridin-4-ylmethyl)-benzenesulfonamide]
